Solubility (mole fraction) data for four compounds are collected here from BigSolDB 2.1.

For the data set the following is noted: in water.

As a reminder, the solubility (mole fraction) is the moles of solute divided by all moles in the saturated solution. As to `O=C(O)c1ccc(O)c(O)c1`, the solubility (mole fraction) is, setting by setting: (293.15 K) 0.00212; (298.15 K) 0.00223; (303.15 K) 0.00229; (308.15 K) 0.00238; (313.15 K) 0.00244; (318.15 K) 0.00256.
Turning to `COc1cc(C(=O)O)cc(OC)c1O`, the solubility (mole fraction) is, setting by setting: (293.15 K) 0.000376; (298.15 K) 0.000522; (303.15 K) 0.000646; (308.15 K) 0.000794; (313.15 K) 0.000915; (318.15 K) 0.00105.
For the compound `COc1cc(C=O)ccc1O`, the solubility (mole fraction) runs as follows: (293.15 K) 0.000989; (298.15 K) 0.00117; (303.15 K) 0.00151; (308.15 K) 0.00182; (313.15 K) 0.0021; (318.15 K) 0.00239.
For `O=C(O)c1cc(O)c(O)c(O)c1`, the solubility (mole fraction) amounted to 0.00117 (293.15 K); 0.00122 (298.15 K); 0.00128 (303.15 K); 0.00131 (308.15 K); 0.00138 (313.15 K); 0.00143 (318.15 K).
